In patent US20060089378A1 (priority 2004, published 2006):
pEC50, pIC50: −log10 of the molar value. Read-outs that look alike come from different tables or passages of the source.

What was measured:
Cannabinoid CB2 Receptor = target: T1, Cannabinoid CB2 Receptor (Homo sapiens, UniProt P34972); experiment: Binding assay for CB2 agonists or inverse agonists (radioligand competition, membranes of transfected SK-N-MC cells); conditions: for inhibition at 0.2 µM: read-out: Cannabinoid CB2 Receptor Binding percent inhibition
T1 construct: expressed in transfected cells
T1 sequence (P34972 whole entry): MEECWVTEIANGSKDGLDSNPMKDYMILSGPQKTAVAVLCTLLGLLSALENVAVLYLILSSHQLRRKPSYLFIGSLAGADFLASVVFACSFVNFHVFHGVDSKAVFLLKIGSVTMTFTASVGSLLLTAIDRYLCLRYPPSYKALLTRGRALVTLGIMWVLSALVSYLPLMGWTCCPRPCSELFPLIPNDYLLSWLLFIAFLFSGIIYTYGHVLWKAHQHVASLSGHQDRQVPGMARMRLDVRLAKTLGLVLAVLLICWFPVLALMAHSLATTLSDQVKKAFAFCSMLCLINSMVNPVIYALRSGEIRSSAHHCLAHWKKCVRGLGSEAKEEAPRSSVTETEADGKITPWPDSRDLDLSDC

CB1 receptor (human) = CB1 receptor (human) (Homo sapiens, UniProt P21554); experiment: cell-based; conditions: for CB1 Receptor Functional Activity (change in functional activity, CRE β-gal): one compound concentration, β-galactosidase activity relative to vehicle treated cells
Sequence of CB1 receptor (human) (P21554 whole entry): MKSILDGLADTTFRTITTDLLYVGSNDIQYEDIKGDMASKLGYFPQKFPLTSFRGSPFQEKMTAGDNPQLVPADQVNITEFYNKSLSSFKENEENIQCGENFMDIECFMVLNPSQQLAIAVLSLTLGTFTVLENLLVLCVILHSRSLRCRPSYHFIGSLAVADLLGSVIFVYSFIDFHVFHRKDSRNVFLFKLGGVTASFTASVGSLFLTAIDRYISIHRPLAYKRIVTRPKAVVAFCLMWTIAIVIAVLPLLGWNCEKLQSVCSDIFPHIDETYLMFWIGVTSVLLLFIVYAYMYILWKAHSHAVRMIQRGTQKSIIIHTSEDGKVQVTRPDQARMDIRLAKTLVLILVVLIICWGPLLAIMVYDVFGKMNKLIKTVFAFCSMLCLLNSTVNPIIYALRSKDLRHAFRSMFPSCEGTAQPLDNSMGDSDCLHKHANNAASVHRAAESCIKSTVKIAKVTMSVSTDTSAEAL

Cannabinoid CB1 Receptor = target: T2, Cannabinoid CB1 Receptor (Homo sapiens, UniProt P21554); experiment: Binding assay for CB1 agonists or inverse agonists (radioligand competition, membranes of transfected SK-N-MC cells); conditions: for inhibition at 0.2 µM: read-out: Cannabinoid CB1 Receptor Binding percent inhibition
T2 construct: expressed in transfected cells
T2 sequence (P21554 whole entry): as above

CB2 receptor (human) = target: T3, CB2 receptor (human) (Homo sapiens, UniProt P34972); experiment: Functional cell-based assay, CB2 receptor mediated change in CRE β-gal expression (adenylate cyclase activity) in SK-N-MC cells
T3 construct: expressed in transfected cells
T3 sequence (P34972 whole entry): as the sequence (P34972 whole entry) above

| Molecule | pIC50 (Cannabinoid CB2 Receptor) | pEC50 (CB1 receptor (human)) | pIC50 (Cannabinoid CB1 Receptor) | pEC50 (CB2 receptor (human)) | inhibition at 0.2 µM (Cannabinoid CB2 Receptor) [%] | also measured |
| --- | --- | --- | --- | --- | --- | --- |
| COC(=O)N1CCc2c(c(C(=O)NC3C4(C)CCC(C4)C3(C)C)nn2Cc2ccccc2)C1 (stereo not drawn) [Cpd 106, 1-benzyl-3-(1,3,3-trimethyl-bicyclo[2.2.1]hept-2-ylcarbamoyl)-1,4,6,7-tetrahydro-pyrazolo[4,3-c]pyridine-5-carboxylic acid methyl ester] | 8.70 | 5.05 | 6.70 | 9.10 | – | – |
| CCOC(=O)N1CCc2c(c(C(=O)NC3C4(C)CCC(C4)C3(C)C)nn2Cc2ccccc2)C1 (stereo not drawn) [Cpd 107, 1-benzyl-3-(1,3,3-trimethyl-bicyclo[2.2.1]hept-2-ylcarbamoyl)-1,4,6,7-tetrahydro-pyrazolo[4,3-c]pyridine-5-carboxylic acid ethyl ester] | 8.52 | – | 7.00 | 8.22 | – | CB1 Receptor Functional Activity (change in functional activity, CRE β-gal) (CB1 receptor (human)): −6% |
| CC(C)(C)OC(=O)N1CCc2c(c(C(=O)NC3C4(C)CCC(C4)C3(C)C)nn2C2CCCCC2)C1 (stereo not drawn) [Cpd 117, 1-cyclohexyl-3-(1,3,3-trimethyl-bicyclo[2.2.1]hept-2-ylcarbamoyl)-1,4,6,7-tetrahydro-pyrazolo[4,3-c]pyridine-5-carboxylic acid tert-butyl ester] | 8.00 | – | 4.93 | – | – | CB1 Receptor Functional Activity (change in functional activity, CRE β-gal) (CB1 receptor (human)): −10%; pEC50 (CB2 receptor (human); SK-N-MC cells expressing CRE β-gal and human CB2, forskolin, β-galactosidase activity, varying compound concentrations, read-out: CB2 Receptor Functional Inverse Agonist EC50): 7.05 |
| COC(=O)N1CCc2c(c(C(=O)NC3C4(C)CCC(C4)C3(C)C)nn2C2CCCCC2)C1 (stereo not drawn) [Cpd 119, 1-cyclohexyl-3-(1,3,3-trimethyl-bicyclo[2.2.1]hept-2-ylcarbamoyl)-1,4,6,7-tetrahydro-pyrazolo[4,3-c]pyridine-5-carboxylic acid methyl ester] | 7.05 | 6.70 | 6.70 | 7.70 | – | – |
| CCOC(=O)N1CCc2c(c(C(=O)NC3C4(C)CCC(C4)C3(C)C)nn2C2CCCCC2)C1 (stereo not drawn) [Cpd 120, 1-cyclohexyl-3-(1,3,3-trimethyl-bicyclo[2.2.1]hept-2-ylcarbamoyl)-1,4,6,7-tetrahydro-pyrazolo[4,3-c]pyridine-5-carboxylic acid ethyl ester] | 7.70 | 7.70 | 6.30 | 7.30 | – | – |
| CC(=O)N1CCc2c(c(C(=O)NC3C4(C)CCC(C4)C3(C)C)nn2C2CCCCC2)C1 (stereo not drawn) [Cpd 123, 5-acetyl-1-cyclohexyl-4,5,6,7-tetrahydro-1H-pyrazolo[4,3-c]pyridine-3-carboxylic acid (1,3,3-trimethyl-bicyclo[2.2.1]hept-2-yl)-amide] | 7.40 | – | 6.70 | 7.85 | – | – |
| Cc1ccc(S(=O)(=O)N2CCc3c(c(C(=O)NC4C5(C)CCC(C5)C4(C)C)nn3C3CCCCC3)C2)cc1 (stereo not drawn) [Cpd 124, 1-cyclohexyl-5-(toluene-4-sulfonyl)-4,5,6,7-tetrahydro-1H-pyrazolo[4,3-c]pyridine-3-carboxylic acid (1,3,3-trimethyl-bicyclo[2.2.1]hept-2-yl)-amide] | 7.70 | – | 5.82 | 7.52 | – | – |
| CC12CCC(C1)C(C)(C)C2NC(=O)c1nn(C2CCCCC2)c2c1CN(S(C)(=O)=O)CC2 (stereo not drawn) [Cpd 133, 1-cyclohexyl-5-methanesulfonyl-4,5,6,7-tetrahydro-1H-pyrazolo[4,3-c]pyridine-3-carboxylic acid (1,3,3-trimethyl-bicyclo[2.2.1]hept-2-yl)-amide] | 6.52 | 6.14 | 6.40 | – | – | change in functional activity (CB2 receptor (human); CB2 section, one compound concentration, relative to vehicle treated cell activity (100%)): −29% |
| CC(=O)N1C/C(=C\c2ccc(F)cc2)c2c(c(C(=O)N(C(C)=O)N3CCCCC3)nn2-c2ccc(Cl)cc2Cl)C1 [Cpd 134, (7E)-5-acetyl-1-(2,4-dichloro-phenyl)-7-(4-fluoro-benzylidene)-4,5,6,7-tetrahydro-1H-pyrazolo[4,3-c]pyridine-3-carboxylic acid acetyl-piperidin-1-yl-amide] | – | 7.70 | – | – | 26 | inhibition at 0.2 µM (Cannabinoid CB1 Receptor): 50% |
| C[C@@H](NC(=O)c1nn(-c2ccc(Cl)cc2Cl)c2c1CN(C(=O)OC(C)(C)C)C/C2=C\c1ccc(F)cc1)c1ccccn1 [Cpd 138, (7E)-1-(2,4-dichloro-phenyl)-7-(4-fluoro-benzylidene)-3-[(1R)-1-pyridin-2-yl-ethylcarbamoyl]-1,4,6,7-tetrahydro-pyrazolo[4,3-c]pyridine-5-carboxylic acid tert-butyl ester] | – | 8.05 | 7.52 | – | 21 | – |
| C[C@@H](NC(=O)c1nn(-c2ccc(Cl)cc2Cl)c2c1CNC/C2=C\c1ccc(F)cc1)c1ccccn1 [Cpd 139, (7E)-1-(2,4-dichloro-phenyl)-7-(4-fluoro-benzylidene)-4,5,6,7-tetrahydro-1H-pyrazolo[4,3-c]pyridine-3-carboxylic acid [(1R)-1-pyridin-2-yl-ethyl]-amide] | – | 7.52 | 7.40 | – | 16 | – |
| C[C@@H](NC(=O)c1nn(-c2ccc(Cl)cc2Cl)c2c1CN(S(C)(=O)=O)C/C2=C\c1ccc(F)cc1)c1ccccn1 [Cpd 140, (7E)-1-(2,4-dichloro-phenyl)-7-(4-fluoro-benzylidene)-5-methanesulfonyl-4,5,6,7-tetrahydro-1H-pyrazolo[4,3-c]pyridine-3-carboxylic acid [(1R)-1-pyridin-2-yl-ethyl]-amide] | – | 8.70 | – | – | 9 | inhibition at 0.2 µM (Cannabinoid CB1 Receptor): 96% |
| (7E)-1-(4-chloro-phenyl)-5-methanesulfonyl-7-(4-methoxy-benzylidene)-4,5,6,7-tetrahydro-1H-pyrazolo[4,3-c]pyridine-3-carboxylic acid (1-pyridin-2-yl-ethyl)-amide [Cpd 78] | – | – | – | – | – | Cannabinoid CB2 Receptor Binding percent inhibition (Cannabinoid CB2 Receptor; test concentration of 0.2 μM, compounds without an IC50 binding value): 17%; pEC50 (CB1 receptor (human); SK-N-MC cells expressing CRE β-gal and human CB1, forskolin, β-galactosidase activity, varying compound concentrations, read-out: CB1 Receptor Functional Inverse Agonist EC50): 8.52; pIC50 (Cannabinoid CB1 Receptor; human CB1, SK-N-MC cell membranes, calculated by linear regression from percent inhibition at various concentrations, read-out: Cannabinoid CB1 Receptor Binding IC50): 8.15 |
